We go through three compounds from US20230174571A1, “METHOD OF TREATING SHIP1-MEDIATED DISEASES USING PELOROL DERIVATIVES” (Zebrapeutics Inc., priority 2020, published 2023).

One test has as its target T1, PAC1 (Mus musculus, UniProt Q9ES52).
T1 construct: PAC1 and PAC2 consists of phosphatase and C2 domain (residues aa 402-861 and aa 402-857 respectively); HMT-tag (His6-MBP-TEV site) (N); made in house; host or cells: E. coli
T1 sequence (Q9ES52 402-861): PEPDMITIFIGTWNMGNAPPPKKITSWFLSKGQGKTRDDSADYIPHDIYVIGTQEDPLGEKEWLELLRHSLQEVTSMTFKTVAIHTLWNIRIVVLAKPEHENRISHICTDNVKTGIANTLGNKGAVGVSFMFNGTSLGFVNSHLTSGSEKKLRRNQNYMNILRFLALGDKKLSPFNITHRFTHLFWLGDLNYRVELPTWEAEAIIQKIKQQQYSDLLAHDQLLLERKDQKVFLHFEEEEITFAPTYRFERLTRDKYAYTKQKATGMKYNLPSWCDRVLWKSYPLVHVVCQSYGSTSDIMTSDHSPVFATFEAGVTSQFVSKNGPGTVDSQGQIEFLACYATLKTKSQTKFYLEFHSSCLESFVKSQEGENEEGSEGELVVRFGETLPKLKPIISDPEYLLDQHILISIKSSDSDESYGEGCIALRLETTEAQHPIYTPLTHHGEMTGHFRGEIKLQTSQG
Kind of test: Small angle X-ray scattering of PAC1. The settings on record: 190 μM PAC1 with 570 μM compound. How it is done:
Small angle X-ray scattering. PAC1 samples in 190 μM in 50 mM TrisHCl (pH7.4) 150 mM NaCl, 1 mM TCEP and 2% EtOH with and without 570 μM compound I-1 ([…]). Dynamic Light Scattering (DLS) data for PAC1 and PAC1-compound I-1 complexes were collected prior to SAXS data collection to confirm that all the samples are highly pure and suitable for data collection. The data collection was performed on a 3-pinhole camera (S-MAX3000; Rigaku Americas, The Woodlands, Tex.) equipped with a Rigaku MicroMaxp002 microfocus sealed tube (Cu Kα radiation at 1.54 Å) and a Confocal Max-Flux (CMF) optics system operating at 40 W (Rigaku). Scattering data were recorded using a 200 mm multiwire two-dimensional detector. The data for both samples and buffer were collected for 3 h for each sample within the range of 0.008≤s≤0.26 Å-1 and processed according to the method previously described, where s=4π sin θ/λ (Patel et al., 2011, Patel et al., 2010, Patel et al., 2012). The Normalized Spatial Discrepancy (NSD) of the non-liganded and liganded PAC1 models were 0.6 and 1.0 respectively.

In another test the test system is DDIT4. Kind of test: DDIT4 expression in macrophages. In kind it is cell-based. The conditions noted are these: compound by itself.
Test [1] relates to LPS-stimulated TNFα production in BMDM. In words: Continuous flow culture of BMDM, TNFα kinetics. In kind it is cell-based, mouse. Here is the method:
Production of bone marrow-derived macrophages. Bone marrow-derived macrophages (BMDMs) were generated by first collecting femurs and tibias from mice, and then flushing out the bone marrow through a 26-G needle. Extracted cells were plated, in Mac media supplemented with 5 ng/ml each of CSF-1 and GM-CSF (Stem Cell Technologies, Vancouver, BC), on a 10-cm tissue culture plate for 2 hours at 37° C. Non-adherent cells were collected and replated at 9×10^6 cells per 10-cm tissue culture plate. Cells were then cultured in the presence of CSF-1 and GM-CSF. Differentiated BMDMs were used after 7 to 8 days. All cells were maintained in a 37° C., 5% CO2, 95% humidity incubator.
Continuous Flow Cultures. The continuous flow apparatus facilitates constant stimulation and removal of cell supernatants to determine kinetic profiles of cytokine production over time. BMDMs were seeded at 3×10^6 cells per well in a 24-well tissue culture plate that had been coated with poly-L-lysine (Thermo Fisher Scientific, Nepean, ON) and rinsed with PBS. After overnight incubation, culture media was removed and Leibovitz's L-15 (L-15) media (Invitrogen, Burlington, ON) supplemented with 3% FCS, 10 μM β-mercaptoethanol and 150 μM monothioglycolate was added. Cells were allowed to equilibrate in L-15 media for 1 hour before being placed in the continuous flow apparatus. Stimulation solution was made in the same media equilibrated at 37° C., and was passed through a modified inlet fitted to the well by a syringe pump (New Era Syringe Pumps Inc., Farmingdale, N.Y.). A flow rate of 150 μl per minute was used. At the same time, cell supernatants were removed from the well at the same flow rate, and fractions were collected at 5-minute intervals over the course of 3 hours. These fractions were analyzed for secreted TNFα levels by ELISA.

Test [2] relates to LPS-stimulated TNFα production. Kind of test: Measurement of TNFα production in LPS-stimulated SHIP1 KO cells reconstituted with SHIP1. The test is classed as cell-based, mouse. The conditions noted are these: 10 ng/ml LPS. Here is the method:
Cell lines. J16 and J17 cell lines derived from SHIP1+/+and −/−BMDM respectively were previously described (Ming-Lum et al., 2012) and cultured in Mac media (IMDM supplemented with 10% (v/v) FCS, 10 μM β-mercaptoethanol, 150 μM monothioglycolate and 1 mM L-glutamine). J17 cells expressing wild type and mutant His6-SHIP1, Clover-SHIP1 or mRuby2-STAT3 constructs were generated by lentivirus mediated gene transfer as described (Cheung et al., 2013). Transduced cells were selected with 5 μg/ml blasticidin. Clover-SHIP1 and mRuby2-STAT3 cells were further subjected to fluorescent activated cell sorting to select the brightest cells on a FACS Aria II cytometer.
Measurement of TNFα production. Cells were seeded at 50×10^4 cells per well in a 96-well tissue culture plate and allowed to adhere overnight. Media was changed the next day 1 hour prior to stimulation. Cells were stimulated with 1 or 10 ng/ml LPS+/−various concentrations of IL10 for 1 hour. Supernatant was collected and secreted TNFα protein levels were measured using a BD OptEIA Mouse TNFα Enzyme-Linked Immunosorbent Assay (ELISA) kit (BD Biosciences, Mississauga, ON). Triplicates wells were used for each stimulation condition. IC50 values were calculated from three independent experiments and differences in IL10 […] values from cells expressing SHIP1 mutants vs SHIP1 WT protein were analyzed by one-way ANOVA.

Consider `Cc1cc(O)cc2c1C1(C)CCC3C(C)(C)CCCC3(C)C1C2` (stereo not shown) [Compound I-1], for which, on PAC1, the “overall conformation of PAC1 on binding (SAXS)” value is “results in a change in its overall conformation”.

`CC12CCC3C(C)(C)C(N)CCC3(C)C1Cc1cc(O)cc(O)c12` (stereo not shown) [Compound I-2]: the DDIT4 expression entry with DDIT4 is recorded as “by itself able to induce DDIT4 expression”.

“IL10: anti-inflammatory cytokine interleukin-10”: in test [1] (LPS-stimulated SHIP1+/+ and STAT3+/+ BMDM), the TNFα levels result is listed as “reduces”. For the same compound, the “inhibition of 3-hour TNFα peak” value in test [1] (LPS-stimulated STAT3−/− and SHIP1−/− (KO) BMDM) was “partly impaired”. The “inhibition of 1-hour TNFα peak” value in test [1] (LPS-stimulated STAT3−/− and SHIP1−/− BMDM) is on record as “completely impaired”. The TNFα production entry in test [2] (cells expressing K681A SHIP1) was “not”; in test [2] (cells expressing wild-type SHIP1), “inhibited TNFα production efficiently”.
